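Where inhibition never reached the appropriate level, the endpoint shown equals the highest concentration tested. Otherwise, values were interpolated linearly from a five-concentration, 48-hour dose response in 96-well plates. TGI is the concentration that stops growth completely.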
How the values were obtained:
Test in all cases: NCI tumour cell line growth inhibition, 48 h
EKVX NSCLC = test system: EKVX NSCLC
MDA-N = test system: MDA-N
MOLT-4 leukemia = test system: MOLT-4 leukemia
HS 578T breast = test system: HS 578T breast
UACC-62 melanoma = test system: UACC-62 melanoma
CCRF-CEM leukemia = test system: CCRF-CEM leukemia
M14 melanoma = test system: M14 melanoma
SR leukemia = test system: SR leukemia
NCI-H522 lung = test system: NCI-H522 lung
OVCAR-3 ovarian = test system: OVCAR-3 ovarian
MDA-MB-435 = test system: MDA-MB-435
U251 CNS = test system: U251 CNS
UACC-257 melanoma = test system: UACC-257 melanoma
UO-31 renal = test system: UO-31 renal
786-0 renal = test system: 786-0 renal
SNB-19 CNS = test system: SNB-19 CNS
NCI-H23 lung = test system: NCI-H23 lung
T-47D breast = test system: T-47D breast

Measured: TGI

N#CSCC(Cl)=CCl (mixture of isomers)
97.5 µM: MOLT-4 leukemia
> 100 µM: all other assays above

CC(=O)SCCC(NC(=S)Nc1ccccc1)P(=O)(Oc1ccccc1)Oc1ccccc1 (configuration not stated)
> 100 µM: all assays above

CC(C)NC(=O)OCc1c2c(n(C)c1COC(=O)NC(C)C)-c1cc(Cl)c(Cl)cc1CC2
86.8 µM: UACC-257 melanoma
65.6 µM: CCRF-CEM leukemia
87.9 µM: NCI-H23 lung
60.3 µM: MOLT-4 leukemia
82.8 µM: OVCAR-3 ovarian
40.6 µM: U251 CNS
66.6 µM: M14 melanoma
not listed: NCI-H522 lung
> 100 µM: all other assays above

CS(=O)(=O)C(C#N)c1nc2ccccc2nc1Cl (configuration not stated)
> 100 µM: all assays above

O=C1CS(=O)(=O)C(c2cccc(Oc3ccccc3)c2)N1c1ccc(Cl)cc1 (configuration not stated)
51.3 µM: EKVX NSCLC
56.1 µM: U251 CNS
45.4 µM: SR leukemia
53 µM: MDA-N
44.3 µM: UACC-257 melanoma
73.4 µM: MDA-MB-435
68.9 µM: NCI-H522 lung
62.7 µM: MOLT-4 leukemia
76.2 µM: M14 melanoma
24.6 µM: UACC-62 melanoma
36.5 µM: 786-0 renal
> 100 µM: all other assays above

Cc1nc2ccc(Br)cc2c(=O)n1-c1nnc(C(C)(C)C)s1
4.45 µM: UO-31 renal
> 10 µM: all other assays above

CCOC(=O)/C=C(\C(=O)OCC)n1cc(C)c(=O)n(Cc2cn(CCCCOC(C)=O)nn2)c1=O
3.01 µM: NCI-H522 lung
31.5 µM: OVCAR-3 ovarian
5.58 µM: CCRF-CEM leukemia
29.9 µM: UACC-62 melanoma
30.5 µM: UACC-257 melanoma
11.6 µM: MOLT-4 leukemia
27.5 µM: UO-31 renal
27.8 µM: NCI-H23 lung
14.5 µM: SR leukemia
37 µM: U251 CNS
24.2 µM: EKVX NSCLC
28.6 µM: MDA-MB-435
16.5 µM: 786-0 renal
50.9 µM: MDA-N
42.3 µM: HS 578T breast
27 µM: M14 melanoma
> 47.5 µM: T-47D breast
47.3 µM: SNB-19 CNS

COc1ccc(/C=C2\N=C(N3CCCCC3)NC2=O)cc1
> 100 µM: all assays above

O=C(O)CO[C@@]12C#C/C=C\C#C[C@@H]3N(C(=O)Oc4ccccc4)c4ccccc4[C@]14O[C@@]34CCC2
90 µM: UO-31 renal
69.4 µM: HS 578T breast
85.9 µM: NCI-H522 lung
34.5 µM: MDA-N
54.8 µM: U251 CNS
6.29 µM: MDA-MB-435
33.1 µM: T-47D breast
26.5 µM: UACC-62 melanoma
> 100 µM: all other assays above

COc1ccc2c(c1)/C(=C\c1c(Cl)[nH]c3cc(C)c(OC)cc13)C(=O)N2
0.596 µM: MDA-MB-435
1.71 µM: OVCAR-3 ovarian
12.8 µM: SNB-19 CNS
40.5 µM: T-47D breast
15.9 µM: UACC-62 melanoma
5.55 µM: U251 CNS
20.6 µM: UACC-257 melanoma
16.5 µM: EKVX NSCLC
5.63 µM: M14 melanoma
2.13 µM: MDA-N
2.58 µM: SR leukemia
13 µM: 786-0 renal
> 35.5 µM: CCRF-CEM leukemia
6.78 µM: NCI-H522 lung
13.7 µM: MOLT-4 leukemia
19.2 µM: UO-31 renal
> 50.7 µM: HS 578T breast
2.9 µM: NCI-H23 lung

CSc1c(C(=O)Nc2ccccc2)c(N)n(N)c(=O)c1C#N
> 100 µM: all assays above

CCOC(=O)c1ccc(N=C/C=C(\Nc2ccc(C(=O)OCC)cc2)C23CC4CC(CC(C4)C2)C3)cc1
not listed: CCRF-CEM leukemia
> 100 µM: all other assays above

COC(=O)[C@@H]1C[C@H]2OC(=O)CC[C@]2(C)O[C@H]1[C@H]1O[C@@](C)(O)CCC[C@H]1C
39.3 µM: CCRF-CEM leukemia
> 50 µM: all other assays above

Source: PubChem BioAssay (NCI)
